28 compounds from patent US20080207614A1, “QUINAZOLINE DERIVATIVES FOR THE TREATMENT AND PREVENTION OF DIABETES AND OBESITY” (SK CHEMICALS CO., LTD., priority 2004, published 2008) can be followed below.

The test system of test [1] is C2C12 muscle cells. As to the kind of experiment: Analysis of glucose absorption (2-deoxyglucose) in differentiated C2C12 muscle cells. It counts as cell-based. The note with it: test materials 10 μM, times relative to control group. In a few lines:
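Uptake of 0.2 μCi 2-deoxyglucose over 20 min, counted radiometrically in lysed cells. Before tracer, compounds (10 μM) were applied for 30 min to C2C12 cells differentiated 6 days in 1% serum and equilibrated 3 h in 5 mM glucose KRB.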

Test [2] concerns AMPK. Kind of test: Measurement of AMPK activity by Western blot in C2C12 cells. It counts as cell-based. On the set-up: key to AMPK activity (degree of phosphorylation of serine-79 and threonine-172): fold increase in threonine-172 phosphorylation; AMPK activity (degree of phosphorylation of serine-79): unit not given here. Particulars: 10 μM for 50 minutes; for AMPK activity (degree of phosphorylation of serine-79 and threonine-172): no superscript: Western blot of serine-79 and threonine-172 phosphorylation; for AMPK activity (class: degree of phosphorylation of threonine-172): strong/mild/weak; for AMPK activity (degree of phosphorylation of serine-79): footnote a: Western blot of serine-79 phosphorylation. In short, it runs like this: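 Western blot readout of AMPK Thr-172 and ACC Ser-79 phosphorylation, normalised against ERK, served as the activity measure. Cells were C2C12 after differentiation, treated 50 minutes with 10 μM test material. Grading by Thr-172 increase: ≥3-fold strong, 1-3-fold mild, <1-fold weak.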
Background: Immunoblotting shows a protein as a band on a membrane.

Consider `CCCCN(C)c1nc(-c2ccccc2)nc2ccccc12` [Compound 138, Butylmethyl-(2-phenylquinazolino-4-yl)-amine], for which the Glucose absorption in test [1] was 2.4. For the same compound, in test [2], the “AMPK activity (degree of phosphorylation of serine-79 and threonine-172)” value stood at 2.9; the “AMPK activity (class: degree of phosphorylation of threonine-172)” value is reported as “strong (“strong” means that the degree of phosphorylation of threonine-172 increased by 3 times or more)”.

Compound `CCSc1nc(NCCc2cccc(F)c2)c2ccccc2n1` [Compound 10, (2-Ethylsulfanylquinazolino-4-yl)-[2-(3-fluorophenyl)-ethyl]-amine] came in with a Glucose absorption in test [1] of 1.5. For the same compound, in test [2], the “AMPK activity (degree of phosphorylation of serine-79)” value is listed as 5.3^a.

Turning to `COc1ccc(CSc2nc(-c3ccccc3)nc3ccccc23)c(OC)c1` [Compound 274, 4-(2,4-Dimethoxybenzylsulfanyl)-2-phenylquinazoline], the Glucose absorption in test [1] is 0.8. Further, the “AMPK activity (degree of phosphorylation of serine-79 and threonine-172)” value in test [2] is given as 1.9.

In test [1], `COc1ccc(OC)c(CNc2nc(C(C)c3ccccc3)nc3ccccc23)c1` (stereo not shown) [Compound 380, (2,5-Dimethoxybenzyl)-[2-(1-phenylethyl)-quinazolino-4-yl]-amine] returned a Glucose absorption of 1.0. The “AMPK activity (degree of phosphorylation of serine-79 and threonine-172)” value in test [2] was found to be 1.9.

On to `CCSc1nc(NCc2cccc(F)c2)c2ccccc2n1` [Compound 9, (2-Ethylsulfanylquinazolino-4-yl)-(3-fluorobenzyl)-amine], for which the Glucose absorption in test [1] came to 2.0. Moreover, in test [2], the “AMPK activity (degree of phosphorylation of serine-79)” value is 5.5^a.

Take `Clc1cccc(CNc2nc(-c3ccccc3)nc3ccccc23)c1Cl` [Compound 115, (2,3-Dichlorobenzyl)-(2-phenylquinazolino-4-yl)-amine]: the Glucose absorption in test [1] was determined as 2.3. In test [2], the “AMPK activity (degree of phosphorylation of serine-79 and threonine-172)” value is on record as 2.3; the “AMPK activity (class: degree of phosphorylation of threonine-172)” value was “strong (“strong” means that the degree of phosphorylation of threonine-172 increased by 3 times or more)”.

Consider `COc1cc(CNc2ncnc3ccccc23)cc(OC)c1OC` [Compound 411, Quinazolino-4-yl-(3,4,5-trimethoxybenzyl)-amine], for which the Glucose absorption in test [1] came to 1.2. Moreover, the “AMPK activity (degree of phosphorylation of serine-79 and threonine-172)” value in test [2] was 1.8.

As to `COc1cc(CNc2nc(C3CC3)nc3ccccc23)cc(OC)c1` [Compound 387, (2-Cyclopropylquinazolino-4-yl)-(3,5-dimethoxybenzyl)-amine], the Glucose absorption in test [1] was determined as 1.2. In test [2], the “AMPK activity (degree of phosphorylation of serine-79 and threonine-172)” value is reported as 1.5.

Compound `c1ccc(CNc2nc(C3CCCCC3)nc3ccccc23)cc1` [Compound 199, Benzyl-(2-cyclohexylquinazolino-4-yl)-amine] yielded a Glucose absorption in test [1] of 2.1. In test [2], the “AMPK activity (degree of phosphorylation of serine-79 and threonine-172)” value is reported as 2.3; the “AMPK activity (class: degree of phosphorylation of threonine-172)” value is “strong (“strong” means that the degree of phosphorylation of threonine-172 increased by 3 times or more)”.

Turning to `COc1ccc(CNc2nc(C3CC3)nc3ccccc23)c(OC)c1` [Compound 390, (2-Cyclopropylquinazolino-4-yl)-(2,4-dimethoxybenzyl)-amine], the Glucose absorption in test [1] is recorded as 1.1. Also, the “AMPK activity (degree of phosphorylation of serine-79 and threonine-172)” value in test [2] is given as 3.8.

Compound `COc1cccc(CNc2nc(-c3cccs3)nc3ccccc23)c1OC` [Compound 353, (2,3-Dimethoxybenzyl)-(2-thiopenyl-2-ylquinazolino-4-yl)-amine] displayed a Glucose absorption in test [1] of 1.2. Further, the “AMPK activity (degree of phosphorylation of serine-79 and threonine-172)” value in test [2] was found to be 0.8.

The compound `COc1ccc(OC)c(CNc2nc(C(C)C)nc3ccccc23)c1` [Compound 326, (2,5-Dimethoxybenzyl)-(2-isopropylquinazolino-4-yl)-amine] gave a Glucose absorption in test [1] of 1.2. Besides, in test [2], the “AMPK activity (degree of phosphorylation of serine-79 and threonine-172)” value turned out to be 2.9.

`COc1cccc(CNc2ncnc3ccccc23)c1` [Compound 405, (3-Methoxybenzyl)-quinazolino-4-ylamine]: the Glucose absorption in test [1] is recorded as 2.2. In addition, in test [2], the “AMPK activity (degree of phosphorylation of serine-79 and threonine-172)” value was 2.7.

In turn, `COc1cccc(CNc2nc(C)nc3ccccc23)c1` [Compound 164, (3-Methoxybenzyl)-(2-methylquinazolino-4-yl)-amine] yielded a Glucose absorption in test [1] of 3.4. In test [2], the “AMPK activity (degree of phosphorylation of serine-79 and threonine-172)” value amounted to 1.6; the “AMPK activity (class: degree of phosphorylation of threonine-172)” value is “mild (“mild” means that the degree of phosphorylation of threonine-172 increased by 1 to 3 times)”.

Consider `COc1ccc(CNc2nc(-c3ccccc3)nc3ccccc23)cc1OC` [Compound 118, (3,4-Dimethoxybenzyl)-(2-phenylquinazolino-4-yl)-amine], for which, in test [1], the Glucose absorption was found to be 2.1. Further, in test [2], the “AMPK activity (degree of phosphorylation of serine-79 and threonine-172)” value stood at 2.0; the “AMPK activity (class: degree of phosphorylation of threonine-172)” value is “strong (“strong” means that the degree of phosphorylation of threonine-172 increased by 3 times or more)”.

For the compound `COc1ccc(OC)c(CNc2nc(N3CCN(C)CC3)nc3ccccc23)c1` [Compound 298, (2,5-Dimethoxybenzyl)-[2-(4-methylpiperazino-1-yl)-quinazolino-4-yl]-amine], in test [1], the Glucose absorption is reported as 0.6. For the same compound, the “AMPK activity (degree of phosphorylation of serine-79 and threonine-172)” value in test [2] is on record as 0.7.

The compound `COc1ccc(CNc2nc(C3CC3)nc3ccccc23)cc1` [Compound 384, (2-Cyclopropylquinazolino-4-yl)-(4-methoxybenzyl)-amine] showed a Glucose absorption in test [1] of 1.2. The “AMPK activity (degree of phosphorylation of serine-79 and threonine-172)” value in test [2] worked out at 2.0.

Take `COc1cc(OC)c(CNc2nc(C(C)c3ccccc3)nc3ccccc23)c(OC)c1` (stereo not shown) [Compound 381, [2-(1-Phenylethyl)-quinazolino-4-yl]-(2,4,6-trimethoxybenzyl)-amine]: the Glucose absorption in test [1] is recorded as 1.2. Besides, the “AMPK activity (degree of phosphorylation of serine-79 and threonine-172)” value in test [2] worked out at 4.0.

In turn, `COc1cccc(CNc2ncnc3ccccc23)c1OC` [Compound 408, (2,3-Dimethoxybenzyl)-quinazolino-4-ylamine] had a Glucose absorption in test [1] of 1.6. Besides, in test [2], the “AMPK activity (degree of phosphorylation of serine-79 and threonine-172)” value stood at 3.5.

In the case of `Clc1cccc(CNc2nc(-c3ccccc3)nc3ccccc23)c1` [Compound 145, (3-Chlorobenzyl)-(2-phenylquinazolino-4-yl)-amine], the Glucose absorption in test [1] was determined as 2.2. Further, in test [2], the “AMPK activity (degree of phosphorylation of serine-79 and threonine-172)” value is listed as 2.7; the “AMPK activity (class: degree of phosphorylation of threonine-172)” value is listed as “strong (“strong” means that the degree of phosphorylation of threonine-172 increased by 3 times or more)”.

`Fc1cccc(CCNc2nc(-c3ccccc3)nc3ccccc23)c1` [Compound 103, [2-(3-Fluorophenyl)-ethyl]-(2-phenylquinazolino-4-yl)-amine] displayed a Glucose absorption in test [1] of 2.2. Moreover, in test [2], the “AMPK activity (degree of phosphorylation of serine-79 and threonine-172)” value is on record as 2.6; the “AMPK activity (class: degree of phosphorylation of threonine-172)” value is “strong (“strong” means that the degree of phosphorylation of threonine-172 increased by 3 times or more)”.

Compound `FCCNc1nc(-c2ccccc2)nc2ccccc12` [Compound 114, (2-Fluoro-ethyl)-(2-phenylquinazolino-4-yl)-amine] came in with a Glucose absorption in test [1] of 2.2. For the same compound, in test [2], the “AMPK activity (degree of phosphorylation of serine-79 and threonine-172)” value came out at 2.0; the “AMPK activity (class: degree of phosphorylation of threonine-172)” value is “strong (“strong” means that the degree of phosphorylation of threonine-172 increased by 3 times or more)”.

With `Fc1ccc(F)c(CNc2nc(-c3ccccc3)nc3ccccc23)c1` [Compound 135, (2,5-Difluorobenzyl)-(2-phenylquinazolino-4-yl)-amine], in test [1], the Glucose absorption is given as 2.6. Moreover, in test [2], the “AMPK activity (degree of phosphorylation of serine-79 and threonine-172)” value is given as 2.0; the “AMPK activity (class: degree of phosphorylation of threonine-172)” value is recorded as “strong (“strong” means that the degree of phosphorylation of threonine-172 increased by 3 times or more)”.

For `O=[N+]([O-])c1cccc(CNc2nc(-c3ccccc3)nc3ccccc23)c1` [Compound 116, (3-Nitrobenzyl)-(2-phenylquinazolino-4-yl)-amine], the Glucose absorption in test [1] came to 2.5. Further, in test [2], the “AMPK activity (degree of phosphorylation of serine-79 and threonine-172)” value was found to be 2.0; the “AMPK activity (class: degree of phosphorylation of threonine-172)” value is reported as “strong (“strong” means that the degree of phosphorylation of threonine-172 increased by 3 times or more)”.

In test [1], `COc1cc(CNc2nc(Cc3ccccc3)nc3ccccc23)cc(OC)c1` [Compound 330, (2-Benzylquinazolino-4-yl)-(3,5-dimethoxybenzyl)-amine] came in with a Glucose absorption of 1.2. In addition, the “AMPK activity (degree of phosphorylation of serine-79 and threonine-172)” value in test [2] was 1.7.

`COc1ccc(OC)c(CNc2nc(C3CC3)nc3ccccc23)c1` [Compound 391, (2-Cyclopropylquinazolino-4-yl)-(2,5-dimethoxybenzyl)-amine] registered a Glucose absorption in test [1] of 1.2. Also, the “AMPK activity (degree of phosphorylation of serine-79 and threonine-172)” value in test [2] was determined as 7.1.

In the case of `Brc1ccccc1CNc1nc(-c2ccccc2)nc2ccccc12` [Compound 155, (2-Bromobenzyl)-(2-phenylquinazolino-4-yl)-amine], the Glucose absorption in test [1] was 2.7. Also, in test [2], the “AMPK activity (degree of phosphorylation of serine-79 and threonine-172)” value was 1.3; the “AMPK activity (class: degree of phosphorylation of threonine-172)” value is “mild (“mild” means that the degree of phosphorylation of threonine-172 increased by 1 to 3 times)”.

`CCOc1cc2ncnc(NCc3ccc(Cl)cc3)c2cc1OCC` [Compound 18, (4-Chlorobenzyl)-(6,7-diethoxyquinazolino-4-yl)-amine] had a Glucose absorption in test [1] of 1.0. Besides, the “AMPK activity (degree of phosphorylation of serine-79)” value in test [2] is reported as 6.0^a.
